Experimental data as given in patent US8536216B2, “Compositions based on aminoacids” (Professional Dietetics S.R.L., priority 2000, dated 2013).
Like-named read-outs stand apart in the source and are kept apart here.

Experiments:
[1] = human, in vivo
athletes = assay: Comparative study in athletes: bench press, squat Romano, maximal power on braked bicycle ergometer; format: in vivo, human
From the text: The effects on energy balance of the an amino acids mixture according to the invention as above indicated were the subject of a comparative study with creatine, on a weight ratio (w/w), or with no treatment, on a large group of volunteers submitted to a rigid protocol of alimentation and training.

[2] = Amino acids plasma modifications induced by acute ingestion of the mixture
[3] = 15' after acute ingestion of the mixture according to the invention
[4] = 30' after acute ingestion of the mixture according to the invention
[5] = 60' after acute ingestion of the mixture according to the invention

Compound	Amino acid plasma level ([1]; 15 min)	Amino acid plasma level ([1]; 30 min)	Amino acid plasma level ([1]; 60 min)	Amino acid plasma level [2, 3]	Amino acid plasma level [2, 4]	Amino acid plasma level [2, 5]	Watt/Kg max (maximal power productive performance on a braked bicycle ergometer) (athletes; after one month of treatment and training, mixture 24 g/d, creatine 25 g/d) [watt/kg max]	Performances over basal and no treatment group (athletes; one month treatment and training)
CSCC[C@H](N)C(=O)O [Methionine]	30 ± 6	32 ± 9	27 ± 4					
C[C@@H](O)[C@H](N)C(=O)O [Threonine]	121 ± 15	137 ± 21	120 ± 16					
N=C(N)NCCC[C@H](N)C(=O)O [Arginine]	85 ± 15	97 ± 13	82 ± 16					
CC(C)[C@H](N)C(=O)O [Valine]	256 ± 19	294 ± 32	249 ± 26					
CN(CC(=O)O)C(=N)N [creatine]							9.8 ± 0.6	significant improvements of performances
N[C@@H](CCC(=O)O)C(=O)O [Glutamate]				563 ± 69	606 ± 32	502 ± 43		
CC[C@H](C)[C@H](N)C(=O)O [Isoleucine]	156 ± 24	162 ± 31	147 ± 32					
CC(C)C[C@H](N)C(=O)O [Leucine]	68 ± 16	109 ± 19	71 ± 9					
NCCCC[C@H](N)C(=O)O [Lysine]	182 ± 17	194 ± 26	179 ± 18					

Continued, in another order:

Amino acid plasma level ([1]; 15 min)	Amino acid plasma level ([1]; 30 min)	Amino acid plasma level ([1]; 60 min)	Amino acid plasma level [2, 3]	Amino acid plasma level [2, 4]	Amino acid plasma level [2, 5]	Compound	Watt/Kg max (maximal power productive performance on a braked bicycle ergometer) (athletes; after one month of treatment and training, mixture 24 g/d, creatine 25 g/d) [watt/kg max]	Performances over basal and no treatment group (athletes; one month treatment and training)
54 ± 6	61 ± 8	49 ± 7				N[C@@H](CS)C(=O)O [Cysteine]		
56 ± 9	61 ± 10	55 ± 7				N[C@@H](Cc1ccccc1)C(=O)O [Phenylalanine]		
62 ± 9	65 ± 14	59 ± 7				N[C@@H](Cc1ccc(O)cc1)C(=O)O [Tyrosine]		
			42 ± 6	44 ± 7	41 ± 5	N[C@@H](CCC(=O)O)C(=O)O [Glutamic acid]		
